This passage reports IC50 results from BindingDB's records for patent US12037345 (Taiho Pharmaceutical, 2024).

The assay deals with T1, Tyrosine-protein phosphatase non-receptor type 11 (Homo sapiens, UniProt Q06124).
T1 sequence (Q06124 whole entry): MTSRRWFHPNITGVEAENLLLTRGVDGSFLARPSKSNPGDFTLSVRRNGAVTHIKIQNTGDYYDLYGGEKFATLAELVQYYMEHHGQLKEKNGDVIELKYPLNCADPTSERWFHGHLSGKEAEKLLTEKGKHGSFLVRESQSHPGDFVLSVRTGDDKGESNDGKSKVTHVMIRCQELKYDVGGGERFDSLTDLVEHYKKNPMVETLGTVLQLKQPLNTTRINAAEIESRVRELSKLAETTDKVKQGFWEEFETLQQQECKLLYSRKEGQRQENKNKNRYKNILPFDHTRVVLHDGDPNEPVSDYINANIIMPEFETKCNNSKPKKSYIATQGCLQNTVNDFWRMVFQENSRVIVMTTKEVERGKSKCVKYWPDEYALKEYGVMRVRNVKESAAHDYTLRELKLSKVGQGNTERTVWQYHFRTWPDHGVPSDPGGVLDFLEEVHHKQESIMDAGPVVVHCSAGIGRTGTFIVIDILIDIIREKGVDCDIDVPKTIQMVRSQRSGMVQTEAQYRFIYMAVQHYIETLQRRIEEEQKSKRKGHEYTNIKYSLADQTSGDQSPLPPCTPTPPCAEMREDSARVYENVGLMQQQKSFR
The experiment in a line: SHP2 Biochemical Assay. As for the experimental part:
SHP2 activity was monitored by measuring the conversion of the surrogate substrate 6,8-difluoromethylumbelliferyl phosphate (DiFMUP) to the fluorescent product, 6,8-difluoromethylumbelliferone (DiFMU).SHP2 was pre-incubated with test compounds and the activating peptide pIRS1 (H2N-LN(pY)IDLDLV-(PEG)8-LST(pY)ASINFQK-amide) for 30 min, prior to addition of the 6,8-difluoromethylumbelliferyl phosphate (DiFMUP), (Thermo Fisher D6567). Final assay concentrations were 10 pM SHP2, […] pIRS1 peptide, 50 μM DiFMUP, 25 mM Bis-Tris propane, pH 7.0, 150 mM NaCl, 0.05% (v/v) Tween-20, 0.5 mM TCEP and 5% (v/v) DMSO. Rates of reaction were then measured over 30 min by monitoring fluorescence on a BMG Pherastar reader at excitation 360 nm/emission 450 nm. IC50 values were calculated in singlicate from the normalized dose-response plots using four parameter logistic curve fit. The Experiment for each compound was carried out in one time or multiple times, and the IC50 values were shown as a single value (for a compound measured in a single experiment) or an average value (for a compound measured in multiple experiments).

In the case of `Cn1c(N2[C@H]3CC[C@@H]2[C@H](N)C3)nc2[nH]cc(-c3ccc4ncsc4c3Cl)c2c1=O` [US12037345, Example 101], it took 1.5 nM to reach half-maximal inhibition (IC50).
